Data reported in paper PMC4387272, “Pharmacokinetic, pharmacodynamic and biomarker evaluation of transforming growth factor-β receptor I kinase inhibitor, galunisertib, in phase 1 study in patients with advanced cancer” (Investigational new drugs, 2014).
Where two headings read alike, the source gives them in different places.

Key:
MDC/CCL22 = test: Multi-analyte immunoassay panel (MAIP) of plasma proteins; assay type: in vivo, Human; conditions: Part A and Part B, data not shown
Procedure: Plasma samples were analyzed for PD assessments by using a multi-analyte immunoassay panel (MAIP) (Myriad RBM, Austin, TX). The MAIP measurements included 89 plasma proteins. These proteins were evaluated at baseline and during the first cycle of treatment.
MDC/CCL22 is associated with modulating T regulatory cells and it may be involved in the activation of antigen-presenting cells. Whether such levels confer a better prognosis remains to be assessed. The lack of a change in MDC/CCL22 may perhaps indicate that this chemokine is not affected by galunisertib, but long-term examinations will be needed to further confirm this initial impression. Other plasma proteins were also found to be at different levels for patients treated with ≥6 cycles or ≤6 cycles.

ID1 and CD44 = test system: ID1 and CD44; set-up: method as in PMID 21156287; conditions: 1 patient, surgical re-resection during off-period of intermittent dosing; cited from earlier work
[1] = Safety and blood counts in first-in-human dose study; assay type: in vivo
Text: An amendment was introduced to assess T cell subsets in Part B and Part C.

[2] = set-up: method as in PMID 24868575; conditions: population PK model, Cohorts 1 through 5; cited from earlier work
[3] = Non-compartmental plasma pharmacokinetics of galunisertib in patients (LC-MS/MS); assay type: in vivo, Human; conditions: for Cmax / AUC(0-inf): po
Procedure: Human plasma samples obtained during this study were analyzed at PharmaNet USA, Inc. Princeton, New Jersey, USA. The samples were analyzed for galunisertib levels using 2 validated liquid chromatography with tandem mass spectrometry methods. For the high-range method (PharmaNet USA, Inc. SOP TM.589), the lower limit of quantification was 5.000 ng/mL and the upper limit of quantification was 1000.000 ng/mL. The intra-assay accuracy (% relative error) during validation ranged from 1.800 to 10.222 %. The intra-assay precision (% relative standard deviation) during validation ranged from 3.119 to 18.389 %. Samples above the limit of quantification were diluted to yield results within the calibrated range. Samples below the lower limit of quantification using the high-range method were reanalyzed using the low-range method. For the low-range method (PharmaNet USA, Inc. SOP TM.563), the lower limit of quantification was 0.050 ng/mL and the upper limit of quantification was 10.000 ng/mL. The intra-assay accuracy during validation ranged from −5.080 to −2.000 %. The intra-assay precision during validation ranged from 4.404 to 12.245 %.
All patients who received at least 1 dose of galunisertib and had samples collected were subjected to PK analyses. The PK parameters for galunisertib were computed by standard non-compartmental methods of analysis using Win Nonlin Professional Edition (version 5.3) on a computer that met or exceeded the minimum system requirements for this program with appropriate and validated software. The parameters reported from the non-compartmental analyses included the maximum plasma concentration (Cmax), area under the curve from zero to 24 h (AUC(0–24)), AUC from zero time to infinity (AUC(0–∞)), half-life volume of distribution (Vd) and clearance (CL).
Clinical benefit in this study has been defined as a patient with either a complete response (CR), partial response (PR), and stable disease (SD) ≥6 cycles. MAIP results from plasma samples taken at baseline were compared between patients completing >6 cycles and ≤6 cycles using ANOVA. The analysis included controlling the false discovery rate to 30 % using the Benjamini-Hochberg method. Boxplots showing the distributions at baseline of the potentially prognostic markers are provided. Observed TGF-β-stimulated pSMAD2 (pSMAD2^+) in PBMCs was normalized by TGF-β-stimulated tSMAD2 [(tSMAD2^+) ^0.6[9, 10]] prior to determining the minimum normalized pSMAD2^+ and calculating percentage inhibition post-baseline for each patient. Baseline and minimum post-baseline values for each patient together with maximum percentage inhibition are presented on a line and scatter plot for each patient in Cohort 3 and summary statistics by time point provided from a standard mixed effects regression model, fitting log normalized pSMAD2^+ to the fixed effects of log baseline normalized pSMAD2^+, nominal time point, dose and their interaction and patient as a random effect.
• Part A (Fig. 1 and Table 2): Non-compartmental PK analysis was performed on 37 of the 39 patients treated in Part A: n=3 in Cohort 1 (40 mg/day); n=4 in Cohort 2 (80 mg/day); n=15 in Cohort 3 (160 mg/day); n=6 in Cohort 4 (240 mg/day); n=9 in Cohort 5 (300 mg/day). […] The terminal half-life was approximately 8 h. At steady state, on Day 14, the median time to maximum concentration (tmax,ss) ranged from 0.5 to 2 h post dose, independent of dose. Formal assessment of time-linear kinetics was not possible, regardless of whether or not the observed exposures of AUC(0–∞) Day 1 and AUC(0–∞) Day 14 were similar. […] Both the maximum observed plasma concentration at steady state (Cmax,ss) and exposure increased with dose as indicated from the statistical analysis of the PK parameters. […] A population PK model was developed based on data in Cohorts 1 through 5 [7]. […] PK profiles of galunisertib following administration of 160 mg/day (Cohort 6) and 300 mg/day (Cohort 7) on Days 6 and 7 were similar.

[4] = patients with advanced cancer, first-in-human dose study
[5] = Part A, 240 mg/day oral BID, day 14 steady state, Cycle 2, individual patients
[6] = Part A, 7.5-fold dose range, power model

AUC0,∞ individual parameters (n <3) [3, 5]: 2500- ^a ng*h/mL | Cmax, ss individual parameters (n <3) [3, 5]: 610- ^a ng/mL | PK profile in patients on enzyme-inducing anti-epileptic medication versus other patients ([3]; Part A, 3 patients (2 in Cohort 3, 1 in Cohort 4)): do not appear to differ | accumulation over the 14-day BID dosing regimen ([3]; Part A, 5 cohorts): no accumulation | estimated ratio of geometric means for AUC(0-∞) between 40 and 300 mg daily [3, 6]: 5.61 | estimated ratio of geometric means for Cmax,ss between 40 and 300 mg daily [3, 6]: 3.99 | PK profile with co-administration of proton pump inhibitors ([3]; Part A, 14 patients on PPI, Day 14): do not appear to be altered | fold increase of AUC(0–∞) for a doubling of dose ([3]; Part A, 40–300 mg, power model): 1.81 fold | fold increase of Cmax,ss for a doubling of dose ([3]; Part A, 40–300 mg, power model): 1.61 fold | duration of measurable plasma concentrations ([3]; Part A, oral, patients): at least 48 h | effect of co-administration of lomustine on galunisertib PK profile ([3]; Part B, 160 mg/day and 300 mg/day, Days 6 and 7): did not appear to alter | dose proportionality of PK ([3]; any doubling of dose within 40–300 mg, particularly AUC(0-∞)): dose-proportional PK | Tmax ([3]; human, plasma, oral, Part A, steady state, Day 14, post dose, independent of dose, read-out: median time to maximum concentration (tmax,ss)): 1800 to 7200 s | Cmax ([3]; human, plasma, 40 mg/day, Part A, 40 mg/day oral BID, day 14 steady state, Cycle 1, patients, read-out: Cmax, ss mean (% CV)): 0.22 µg/mL | Cmax ([3]; human, plasma, 80 mg/day, Part A, 80 mg/day oral BID, day 14 steady state, Cycle 1, patients, read-out: Cmax, ss mean (% CV)): 0.35 µg/mL | AUC(0-inf) ([3]; human, plasma, 160 mg/day, Part A, 160 mg/day oral BID, day 14 steady state, Cycle 1, patients, read-out: AUC0,∞ mean (% CV)): 2.14 µg·h/mL | Cmax ([3]; human, plasma, 160 mg/day, Part A, 160 mg/day oral BID, day 14 steady state, Cycle 1, patients, read-out: Cmax, ss mean (% CV)): 0.63 µg/mL | AUC(0-inf) ([3]; human, plasma, 160 mg/day, Part A, 160 mg/day oral BID, day 14 steady state, Cycle 2, patients, read-out: AUC0,∞ mean (% CV)): 2.43 µg·h/mL | Cmax ([3]; human, plasma, 160 mg/day, Part A, 160 mg/day oral BID, day 14 steady state, Cycle 2, patients, read-out: Cmax, ss mean (% CV)): 0.79 µg/mL | AUC(0-inf) ([3]; human, plasma, 240 mg/day, Part A, 240 mg/day oral BID, day 14 steady state, Cycle 1, patients, read-out: AUC0,∞ mean (% CV)): 3.06 µg·h/mL | Cmax ([3]; human, plasma, 240 mg/day, Part A, 240 mg/day oral BID, day 14 steady state, Cycle 1, patients, read-out: Cmax, ss mean (% CV)): 0.66 µg/mL | AUC(0-inf) ([3]; human, plasma, 240 mg/day, Part A, 240 mg/day oral BID, day 14 steady state, Cycle 2, individual patients, read-out: AUC0,∞ individual parameters (n <3)): 2.9 µg·h/mL | Cmax ([3]; human, plasma, 240 mg/day, Part A, 240 mg/day oral BID, day 14 steady state, Cycle 2, individual patients, read-out: Cmax, ss individual parameters (n <3)): 0.52 µg/mL | AUC(0-inf) ([3]; human, plasma, 300 mg/day, Part A, 300 mg/day oral BID, day 14 steady state, Cycle 1, patients, read-out: AUC0,∞ mean (% CV)): 3.73 µg·h/mL | Cmax ([3]; human, plasma, 300 mg/day, Part A, 300 mg/day oral BID, day 14 steady state, Cycle 1, patients, read-out: Cmax, ss mean (% CV)): 0.99 µg/mL | AUC(0-inf) ([3]; human, plasma, 300 mg/day, Part A, 300 mg/day oral BID, day 14 steady state, Cycle 2, patients, read-out: AUC0,∞ mean (% CV)): 2.93 µg·h/mL | Cmax ([3]; human, plasma, 300 mg/day, Part A, 300 mg/day oral BID, day 14 steady state, Cycle 2, patients, read-out: Cmax, ss mean (% CV)): 0.8 µg/mL | half-life ([3]; human, plasma, Part A, oral, patients, read-out: terminal half-life (converted)): ~8 h | between-patient coefficient of variation for AUC(0-∞) at steady state ([3]; pooled across the 5 cohorts): 42% | between-patient coefficient of variation for Cmax,ss ([3]; pooled across the 5 cohorts): 55% | within-patient coefficient of variation for AUC(0-∞) at steady state ([3]; pooled across the 5 cohorts): 29% | within-patient coefficient of variation for Cmax,ss ([3]; pooled across the 5 cohorts): 31%
SMILES: Cc1cccc(-c2nn3c(c2-c2ccnc4ccc(C(N)=O)cc24)CCC3)n1 [galunisertib]
post-treatment plasma levels of MDC/CCL22 (MDC/CCL22): did not show a change | expression of ID1 and CD44 in tumor tissue after treatment (ID1 and CD44): reduced | lymphocyte counts ([1]; Part B, combination of galunisertib and lomustine, some patients): reduction in lymphocyte counts | bone marrow toxicity (neutrophils, platelets, lymphocyte counts) ([1]; Part C, monotherapy 300 mg/day, patients receiving more than 2 cycles): no comparable bone marrow toxicity | cardiac adverse events [1, 4]: no cardiac adverse events | toxicity / safety profile [1, 4]: favorable safety profile | toxicity / safety profile ([1]; patients with advanced cancer, first-in-human dose study, listed as Galunisertib): favorable toxicity profile | mean population CL [2]: 38 L/h | steady state volume of distribution (Vss) [2]: 210 L
